The source of these data is ChEMBL document CHEMBL1201862, “PubChem BioAssay data set” (2004).

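How tested: cells in 96-well plates exposed to compound for 48 hours at five concentrations. GI50 is the concentration that inhibits growth by half.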 Calls of active or inactive are those of the source. Rule as the data show it: active = GI50 up to about 1.1 µM and inactive = higher.

Test systems include NCI/ADR-RES; K562; HCT-15; SNB-75; TK-10; HT-29; SNB-19; KM12; SN12C; A549; MOLT-4; UO-31; MCF7; T47D; SK-OV-3; IGROV-1; SK-MEL-5; DMS-114; SF-295; NCI-H522.
Common to all, as to assay: NCI anticancer screen, dose series, 48 h

Consider `C[n+]1c2ccccc2c(CNC(CCC(N)=O)C(=O)O)c2ccccc21` (stereo not given), for which the GI50 in the assay with NCI/ADR-RES is 4560 nM (inactive); with K562 it was 340 nM (active); in the assay with HCT-15 it was 1240 nM; in the assay with SNB-75, 5220 nM (inactive); in the assay with TK-10 it was 1530 nM (inactive); in the assay on HT-29, 1220 nM (inactive). For the same compound, the GI50 in the assay with SNB-19 was 6180 nM (inactive); in the assay on KM12 it was 2460 nM (inactive); with SN12C, 2640 nM (inactive); with A549 it was 4380 nM (inactive); in the assay on MOLT-4 it was 998 nM (active); in the assay with UO-31, 2670 nM (inactive). The GI50 in the assay with MCF7 is 1020 nM (active); in the assay with T47D, 22.1 nM (active); in the assay on SK-OV-3, 6210 nM (inactive); in the assay with IGROV-1, 4150 nM (inactive); with SK-MEL-5, 1990 nM (inactive); in the assay on DMS-114 it was 577 nM (active). Further, the GI50 was 6710 nM (inactive) in the assay on SF-295 and 1570 nM (inactive) with NCI-H522.
